Laboratory results as given in PubChem BioAssay (NCI).
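Growth conditions: 96-well plates. Treatment: test compound, 48 hours, 5 concentrations. Analysis: linear interpolation between bracketing concentrations; unreached endpoints set to highest concentration. GI50 marks 50% less growth. TGI marks complete inhibition of growth.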

Test system: MDA-MB-468 breast
Test: NCI anticancer screen, dose series, 48 h

| Compound | GI50 [µM] | TGI [µM] |
| --- | --- | --- |
| COC1/C=C/OC2(C)Oc3c(C)c(O)c4c(O)c(c(C=NOC(c5ccccc5)c5ccccc5)c(O)c4c3C2=O)NC(=O)/C(C)=C/C=C/C(C)C(O)C(C)C(O)C(C)C(OC(C)=O)C1C (stereo unspecified) | 1.05 | 2.78 |
| CC/C(=C(/CC)c1ccc(O)cc1)c1ccc(O)cc1 | 2.71 | 15.1 |
| O=C(Nc1nc(-c2ccccc2Cl)cs1)c1cc(-c2ccc(Cl)cc2)nc2ccc(Cl)cc12 | 5.6 | 79.6 |
